Data from ChEMBL document CHEMBL4507277.

Tests used:
[1] = system: Phosphatidylinositol 4,5-bisphosphate 3-kinase catalytic subunit alpha isoform (Homo sapiens), P42336 [C420R]; conditions: Compound concentration 1000.0 nM
[2] = molecular target: 5-hydroxytryptamine receptor 7 (Homo sapiens) (UniProt P34969); conditions: Compound concentration 10.0 uM
[3] = molecular target: Non-receptor tyrosine-protein kinase TYK2 (Homo sapiens) (UniProt P29597); conditions: Compound concentration 1000.0 nM
[4] = molecular target: Epidermal growth factor receptor (Homo sapiens) (UniProt P00533); conditions: Compound concentration 1000.0 nM
[5] = molecular target: Serine/threonine-protein kinase NLK (Homo sapiens) (UniProt Q9UBE8); conditions: Compound concentration 1000.0 nM
Chain of Serine/threonine-protein kinase NLK (Homo sapiens) (Q9UBE8 whole entry): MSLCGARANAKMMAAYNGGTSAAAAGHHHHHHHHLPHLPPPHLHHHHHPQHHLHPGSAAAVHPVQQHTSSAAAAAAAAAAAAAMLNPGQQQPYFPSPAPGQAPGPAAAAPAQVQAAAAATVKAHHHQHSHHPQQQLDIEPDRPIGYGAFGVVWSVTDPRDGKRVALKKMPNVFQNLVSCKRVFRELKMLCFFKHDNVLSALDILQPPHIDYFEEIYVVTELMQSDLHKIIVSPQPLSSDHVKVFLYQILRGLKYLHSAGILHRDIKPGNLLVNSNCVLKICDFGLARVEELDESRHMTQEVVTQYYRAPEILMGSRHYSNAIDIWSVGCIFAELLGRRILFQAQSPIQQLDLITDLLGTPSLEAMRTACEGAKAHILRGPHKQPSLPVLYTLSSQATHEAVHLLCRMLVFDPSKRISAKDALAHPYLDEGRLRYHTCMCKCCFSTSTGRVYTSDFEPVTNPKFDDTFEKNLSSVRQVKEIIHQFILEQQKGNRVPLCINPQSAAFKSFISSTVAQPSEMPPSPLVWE

[6] = molecular target: Casein kinase II subunit alpha (Homo sapiens) (UniProt P68400); conditions: Compound concentration 1000.0 nM
Chain of Casein kinase II subunit alpha (Homo sapiens) (P68400 whole entry, looked up, canonical isoform): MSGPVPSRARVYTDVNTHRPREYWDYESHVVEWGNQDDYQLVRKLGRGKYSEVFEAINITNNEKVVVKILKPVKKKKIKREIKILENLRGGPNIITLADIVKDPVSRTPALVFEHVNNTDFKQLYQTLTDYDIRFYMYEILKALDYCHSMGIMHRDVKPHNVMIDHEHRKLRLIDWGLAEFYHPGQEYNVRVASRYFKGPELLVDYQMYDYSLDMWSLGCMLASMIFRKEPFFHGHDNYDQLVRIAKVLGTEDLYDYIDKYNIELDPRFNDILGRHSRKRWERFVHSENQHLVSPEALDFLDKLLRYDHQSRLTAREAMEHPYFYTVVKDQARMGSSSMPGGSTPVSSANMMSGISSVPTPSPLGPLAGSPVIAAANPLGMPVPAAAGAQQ

[7] = system: Phosphatidylinositol 4,5-bisphosphate 3-kinase catalytic subunit alpha isoform (Homo sapiens), P42336 [E545A]; conditions: Compound concentration 1000.0 nM
[8] = molecular target: Vascular endothelial growth factor receptor 3 (Homo sapiens) (UniProt P35916); conditions: Compound concentration 1000.0 nM
[9] = molecular target: Interleukin-1 receptor-associated kinase 1 (Homo sapiens) (UniProt P51617); conditions: Compound concentration 1000.0 nM
Chain of Interleukin-1 receptor-associated kinase 1 (Homo sapiens) (P51617 whole entry, looked up): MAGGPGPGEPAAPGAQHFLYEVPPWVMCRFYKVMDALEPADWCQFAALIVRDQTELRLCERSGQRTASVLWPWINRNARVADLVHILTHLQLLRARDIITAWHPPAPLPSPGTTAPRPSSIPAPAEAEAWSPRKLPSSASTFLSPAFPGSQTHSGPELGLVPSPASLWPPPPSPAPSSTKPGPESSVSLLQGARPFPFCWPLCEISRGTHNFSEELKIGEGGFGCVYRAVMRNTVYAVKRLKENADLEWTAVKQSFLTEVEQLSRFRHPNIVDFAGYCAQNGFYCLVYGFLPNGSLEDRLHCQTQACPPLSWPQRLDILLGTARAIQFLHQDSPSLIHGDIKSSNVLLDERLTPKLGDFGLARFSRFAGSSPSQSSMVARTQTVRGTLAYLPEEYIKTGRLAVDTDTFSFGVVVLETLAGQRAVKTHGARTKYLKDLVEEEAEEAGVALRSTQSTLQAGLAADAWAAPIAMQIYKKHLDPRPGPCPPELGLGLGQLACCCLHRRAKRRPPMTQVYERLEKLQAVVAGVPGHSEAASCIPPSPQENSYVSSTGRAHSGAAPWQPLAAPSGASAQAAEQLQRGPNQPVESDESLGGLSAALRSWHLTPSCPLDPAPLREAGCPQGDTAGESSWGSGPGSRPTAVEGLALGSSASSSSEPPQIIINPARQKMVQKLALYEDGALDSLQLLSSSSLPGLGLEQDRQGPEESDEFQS

[10] = molecular target: Insulin receptor-related protein (Homo sapiens) (UniProt P14616); conditions: Compound concentration 1000.0 nM
[11] = system: Epidermal growth factor receptor (Homo sapiens), P00533 [UNDEFINED MUTATION]; conditions: Compound concentration 1000.0 nM
Chain of Epidermal growth factor receptor (Homo sapiens), P00533 [UNDEFINED MUTATION] (P00533 whole entry, looked up, change not shown): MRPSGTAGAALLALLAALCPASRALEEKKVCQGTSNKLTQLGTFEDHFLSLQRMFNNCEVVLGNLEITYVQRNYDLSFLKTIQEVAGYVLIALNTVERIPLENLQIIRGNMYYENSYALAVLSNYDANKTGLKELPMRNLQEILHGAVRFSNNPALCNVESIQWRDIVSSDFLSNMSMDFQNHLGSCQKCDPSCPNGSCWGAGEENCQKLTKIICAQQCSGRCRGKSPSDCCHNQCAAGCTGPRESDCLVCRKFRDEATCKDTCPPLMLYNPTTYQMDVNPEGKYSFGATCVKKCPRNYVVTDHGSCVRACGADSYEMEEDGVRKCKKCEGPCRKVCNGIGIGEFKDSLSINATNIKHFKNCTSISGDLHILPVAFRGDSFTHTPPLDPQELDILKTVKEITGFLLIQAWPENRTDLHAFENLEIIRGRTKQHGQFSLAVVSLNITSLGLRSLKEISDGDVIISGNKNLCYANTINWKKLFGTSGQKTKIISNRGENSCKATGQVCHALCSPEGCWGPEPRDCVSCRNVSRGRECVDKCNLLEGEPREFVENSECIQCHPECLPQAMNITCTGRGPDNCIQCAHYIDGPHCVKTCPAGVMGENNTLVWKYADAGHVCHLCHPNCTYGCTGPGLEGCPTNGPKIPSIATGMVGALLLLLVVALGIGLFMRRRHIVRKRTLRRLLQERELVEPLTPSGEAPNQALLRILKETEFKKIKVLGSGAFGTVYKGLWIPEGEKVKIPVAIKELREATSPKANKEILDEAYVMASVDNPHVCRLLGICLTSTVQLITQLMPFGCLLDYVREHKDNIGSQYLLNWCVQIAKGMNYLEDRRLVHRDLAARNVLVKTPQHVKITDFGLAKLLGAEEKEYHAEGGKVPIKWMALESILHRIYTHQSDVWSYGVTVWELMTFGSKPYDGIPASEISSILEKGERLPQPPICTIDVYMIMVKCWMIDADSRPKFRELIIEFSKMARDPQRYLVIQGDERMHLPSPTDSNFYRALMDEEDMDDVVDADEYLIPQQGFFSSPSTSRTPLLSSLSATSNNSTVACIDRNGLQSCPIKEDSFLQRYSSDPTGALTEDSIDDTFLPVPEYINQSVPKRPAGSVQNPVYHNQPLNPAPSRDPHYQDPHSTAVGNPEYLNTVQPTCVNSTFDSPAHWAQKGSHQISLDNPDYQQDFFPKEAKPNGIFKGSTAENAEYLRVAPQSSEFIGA

[12] = molecular target: Tyrosine-protein kinase CSK (Homo sapiens) (UniProt P41240); conditions: Compound concentration 1000.0 nM
[13] = molecular target: Calcium/calmodulin-dependent protein kinase type 1 (Homo sapiens) (UniProt Q14012); conditions: Compound concentration 1000.0 nM
[14] = molecular target: Activin receptor type-2B (Homo sapiens) (UniProt Q13705); conditions: Compound concentration 1000.0 nM
[15] = molecular target: Histamine H2 receptor (Homo sapiens) (UniProt P25021); conditions: Compound concentration 10.0 uM
[16] = system: Tyrosine-protein kinase ABL1 (Homo sapiens), P00519 [F317I]; conditions: Compound concentration 1000.0 nM
[17] = molecular target: Tyrosine-protein kinase Fyn (Homo sapiens) (UniProt P06241); conditions: Compound concentration 1000.0 nM
[18] = molecular target: Serine/threonine-protein kinase SIK2 (Homo sapiens) (UniProt Q9H0K1); conditions: Compound concentration 1000.0 nM
[19] = system: Receptor-type tyrosine-protein kinase FLT3 (Homo sapiens), P36888 [D835H]; conditions: Compound concentration 1000.0 nM
[20] = molecular target: Mitogen-activated protein kinase 1 (Homo sapiens) (UniProt P28482); conditions: Compound concentration 1000.0 nM
[21] = molecular target: Serine/threonine-protein kinase 4 (Homo sapiens) (UniProt Q13043); conditions: Compound concentration 1000.0 nM
[22] = molecular target: Serine/threonine-protein kinase 38-like (Homo sapiens) (UniProt Q9Y2H1); conditions: Compound concentration 1000.0 nM
[23] = system: eIF-2-alpha kinase GCN2 (Homo sapiens), Q9P2K8 [S808G]; conditions: Compound concentration 1000.0 nM
[24] = molecular target: Testis-specific serine/threonine-protein kinase 1 (Homo sapiens) (UniProt Q9BXA7); conditions: Compound concentration 1000.0 nM
[25] = molecular target: D(1B) dopamine receptor (Homo sapiens) (UniProt P21918); conditions: Compound concentration 10.0 uM
[26] = molecular target: Tyrosine-protein kinase JAK1 (Homo sapiens) (UniProt P23458); conditions: Compound concentration 1000.0 nM
[27] = molecular target: Mitogen-activated protein kinase kinase kinase 7 (Homo sapiens) (UniProt O43318); conditions: Compound concentration 1000.0 nM
[28] = molecular target: Beta-3 adrenergic receptor (Homo sapiens) (UniProt P13945); conditions: Compound concentration 10.0 uM
[29] = system: Epidermal growth factor receptor (Homo sapiens), P00533 [UNDEFINED MUTATION]; conditions: Compound concentration 1000.0 nM; remark: listed apart in the source
[30] = molecular target: Non-receptor tyrosine-protein kinase TYK2 (Homo sapiens) (UniProt P29597); conditions: Compound concentration 1000.0 nM; remark: listed apart in the source
[31] = molecular target: Calcium/calmodulin-dependent protein kinase type II subunit beta (Homo sapiens) (UniProt Q13554); conditions: Compound concentration 1000.0 nM
[32] = molecular target: T1, 5-hydroxytryptamine receptor 3A (Homo sapiens) (UniProt P46098); conditions: Compound concentration 10.0 uM
T1 sequence (whole entry): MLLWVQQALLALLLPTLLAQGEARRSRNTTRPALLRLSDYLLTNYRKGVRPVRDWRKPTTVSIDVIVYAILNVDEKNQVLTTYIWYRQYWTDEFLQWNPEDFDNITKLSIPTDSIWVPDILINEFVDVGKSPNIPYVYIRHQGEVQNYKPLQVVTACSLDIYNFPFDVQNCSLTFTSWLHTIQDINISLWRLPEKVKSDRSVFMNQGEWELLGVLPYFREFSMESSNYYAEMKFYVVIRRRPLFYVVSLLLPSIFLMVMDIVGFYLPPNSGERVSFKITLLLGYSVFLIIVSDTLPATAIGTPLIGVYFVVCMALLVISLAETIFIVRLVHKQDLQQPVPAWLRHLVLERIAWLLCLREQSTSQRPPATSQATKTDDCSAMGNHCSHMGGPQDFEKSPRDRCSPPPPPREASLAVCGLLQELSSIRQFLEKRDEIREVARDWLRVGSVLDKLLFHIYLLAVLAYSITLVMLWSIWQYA

[33] = molecular target: 1-phosphatidylinositol 3-phosphate 5-kinase (Homo sapiens) (UniProt Q9Y2I7); conditions: Compound concentration 1000.0 nM
[34] = molecular target: Bone morphogenetic protein receptor type-1B (Homo sapiens) (UniProt O00238); conditions: Compound concentration 1000.0 nM
[35] = molecular target: Cyclin-dependent kinase 2 (Homo sapiens) (UniProt P24941); conditions: Compound concentration 1000.0 nM
[36] = molecular target: Serine/threonine-protein kinase SIK3 (Homo sapiens) (UniProt Q9Y2K2); conditions: Compound concentration 1000.0 nM
[37] = molecular target: Serine/threonine-protein kinase PLK2 (Homo sapiens) (UniProt Q9NYY3); conditions: Compound concentration 1000.0 nM
[38] = system: Tyrosine-protein kinase ABL1 (Homo sapiens), P00519 [T315I]; conditions: Compound concentration 1000.0 nM

Chain of Non-receptor tyrosine-protein kinase TYK2 (Homo sapiens) (P29597 whole entry): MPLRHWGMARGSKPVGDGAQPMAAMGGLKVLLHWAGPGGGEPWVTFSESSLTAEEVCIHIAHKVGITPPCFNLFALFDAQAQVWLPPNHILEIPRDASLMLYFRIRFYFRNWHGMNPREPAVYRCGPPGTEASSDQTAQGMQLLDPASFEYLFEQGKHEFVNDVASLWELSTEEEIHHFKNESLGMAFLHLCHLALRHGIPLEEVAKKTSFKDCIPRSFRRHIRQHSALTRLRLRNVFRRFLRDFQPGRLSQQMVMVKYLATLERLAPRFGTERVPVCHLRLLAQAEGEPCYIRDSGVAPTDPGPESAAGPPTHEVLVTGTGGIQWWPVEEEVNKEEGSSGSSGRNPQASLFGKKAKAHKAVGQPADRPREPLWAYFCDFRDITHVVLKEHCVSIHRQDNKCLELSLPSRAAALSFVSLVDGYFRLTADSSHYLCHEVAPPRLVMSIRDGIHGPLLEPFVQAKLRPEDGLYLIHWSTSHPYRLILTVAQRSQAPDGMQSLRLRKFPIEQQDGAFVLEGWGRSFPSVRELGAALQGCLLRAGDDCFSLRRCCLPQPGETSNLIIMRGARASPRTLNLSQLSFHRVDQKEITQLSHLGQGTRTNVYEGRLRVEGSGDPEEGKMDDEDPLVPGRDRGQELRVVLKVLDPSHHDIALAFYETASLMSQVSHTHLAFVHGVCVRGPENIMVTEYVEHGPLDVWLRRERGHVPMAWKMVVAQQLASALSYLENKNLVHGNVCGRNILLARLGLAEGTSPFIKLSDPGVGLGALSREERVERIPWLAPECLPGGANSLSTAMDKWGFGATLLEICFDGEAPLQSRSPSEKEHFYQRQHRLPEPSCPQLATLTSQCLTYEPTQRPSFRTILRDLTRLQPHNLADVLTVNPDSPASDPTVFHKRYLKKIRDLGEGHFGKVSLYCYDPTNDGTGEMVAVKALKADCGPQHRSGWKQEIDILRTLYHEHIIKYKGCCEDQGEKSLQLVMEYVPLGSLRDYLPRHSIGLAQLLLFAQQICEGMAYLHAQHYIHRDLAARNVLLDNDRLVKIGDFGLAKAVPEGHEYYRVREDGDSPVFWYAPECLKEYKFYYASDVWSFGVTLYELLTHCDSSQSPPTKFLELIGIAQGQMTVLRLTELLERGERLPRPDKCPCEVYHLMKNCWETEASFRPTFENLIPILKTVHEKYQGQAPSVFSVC
Chain of Phosphatidylinositol 4,5-bisphosphate 3-kinase catalytic subunit alpha isoform (Homo sapiens), P42336 [C420R] (P42336 whole entry C420R, canonical isoform): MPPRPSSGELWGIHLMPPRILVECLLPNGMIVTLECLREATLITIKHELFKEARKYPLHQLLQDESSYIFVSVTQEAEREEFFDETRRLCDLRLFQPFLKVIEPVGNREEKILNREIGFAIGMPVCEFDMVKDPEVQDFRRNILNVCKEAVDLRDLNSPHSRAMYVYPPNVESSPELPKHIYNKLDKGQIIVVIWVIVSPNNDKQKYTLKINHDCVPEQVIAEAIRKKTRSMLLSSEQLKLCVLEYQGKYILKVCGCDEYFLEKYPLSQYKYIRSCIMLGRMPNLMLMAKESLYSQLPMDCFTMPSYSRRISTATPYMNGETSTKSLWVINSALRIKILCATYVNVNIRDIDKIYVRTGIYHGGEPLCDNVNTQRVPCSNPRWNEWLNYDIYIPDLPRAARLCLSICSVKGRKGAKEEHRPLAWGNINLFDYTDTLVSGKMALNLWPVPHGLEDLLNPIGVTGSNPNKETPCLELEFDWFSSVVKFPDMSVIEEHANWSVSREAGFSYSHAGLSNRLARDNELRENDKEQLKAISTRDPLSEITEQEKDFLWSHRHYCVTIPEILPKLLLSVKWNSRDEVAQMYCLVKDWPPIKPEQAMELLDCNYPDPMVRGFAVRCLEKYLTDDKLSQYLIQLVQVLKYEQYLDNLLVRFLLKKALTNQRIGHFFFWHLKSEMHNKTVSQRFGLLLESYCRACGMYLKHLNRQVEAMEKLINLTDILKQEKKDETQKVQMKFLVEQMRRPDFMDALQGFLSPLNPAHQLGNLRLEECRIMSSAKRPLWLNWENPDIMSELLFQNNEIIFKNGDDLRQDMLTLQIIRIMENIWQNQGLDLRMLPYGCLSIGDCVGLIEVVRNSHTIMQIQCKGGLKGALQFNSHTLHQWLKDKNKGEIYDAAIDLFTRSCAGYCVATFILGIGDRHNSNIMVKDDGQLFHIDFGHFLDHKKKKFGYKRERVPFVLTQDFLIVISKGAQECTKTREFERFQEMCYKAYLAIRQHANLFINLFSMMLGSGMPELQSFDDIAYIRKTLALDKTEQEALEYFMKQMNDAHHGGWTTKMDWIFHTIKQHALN

SMILES	residual activity [1]	inhibition [2]	residual activity [3]	residual activity [4]	residual activity [5]	residual activity [6]	residual activity [7]	residual activity [8]	residual activity [9]	residual activity [10]	residual activity [11]	residual activity [12]	residual activity [13]	residual activity [14]	inhibition [15]	residual activity [16]	residual activity [17]	residual activity [18]	residual activity [19]	residual activity [20]	other results
CCS(=O)(=O)c1cc2cc(C[C@](O)(CC(C)(C)c3ccc(F)cc3C(N)=O)C(F)(F)F)[nH]c2cn1	95%	4.98%	93%	81%	100%	100%	100%	95%	99%	100%	93%	100%	86%	98%	12.3%	94%	77%	100%	100%	100%	residual activity [21]: 100%; residual activity [22]: 45%; residual activity [23]: 89%; residual activity [24]: 94%; inhibition [25]: 34.2%; residual activity [26]: 96%; residual activity [27]: 100%; inhibition [28]: 13%; residual activity [29]: 100%; residual activity [30]: 100%; residual activity [31]: 97%; inhibition [32]: 32.2%; residual activity [33]: 97%; residual activity [34]: 100%; residual activity [35]: 94%; residual activity [36]: 85%; residual activity [37]: 91%; residual activity [38]: 85%
CCS(=O)(=O)c1cc2cc(C[C@@](O)(CC(C)(C)c3ccc(F)cc3C(N)=O)C(F)(F)F)[nH]c2cn1	89%	4.44%	83%	96%	100%	75%	99%	90%	80%	64%	79%	82%	57%	100%	6.84%	100%	100%	100%	100%	94%	residual activity [21]: 100%; residual activity [22]: 38%; residual activity [23]: 94%; residual activity [24]: 96%; inhibition [25]: 32.4%; residual activity [26]: 89%; residual activity [27]: 92%; inhibition [28]: 0.63%; residual activity [29]: 93%; residual activity [30]: 82%; residual activity [31]: 100%; inhibition [32]: 21.1%; residual activity [33]: 69%; residual activity [34]: 55%; residual activity [35]: 96%; residual activity [36]: 81%; residual activity [37]: 100%; residual activity [38]: 74%
